Laboratory results from PubChem BioAssay (NCI).
“And” between values parts separate entries of the source, which are not always exact repeats. Equal values may be shown once.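 Step 1: Grow cells in 96-well plates. Step 2: Expose to compound for 48 hours at 5 concentrations. Step 3: Interpolate endpoints linearly; if unreached, use highest concentration. GI50 marks 50% less growth. TGI: concentration producing complete growth inhibition.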

What was measured:
Assay in all cases: NCI-60 cell line screen, 48 h
UACC-62 melanoma = system: UACC-62 melanoma
U251 CNS = system: U251 CNS
ACHN renal = system: ACHN renal
TK-10 renal = system: TK-10 renal
T-47D breast = system: T-47D breast
SF-268 CNS = system: SF-268 CNS
K-562 leukemia = system: K-562 leukemia
NCI-H226 lung = system: NCI-H226 lung
LOX IMVI melanoma = system: LOX IMVI melanoma
M14 melanoma = system: M14 melanoma

Row | SMILES | GI50 (UACC-62 melanoma) [µM] | TGI (UACC-62 melanoma) | GI50 (U251 CNS) [µM] | TGI (U251 CNS) | GI50 (ACHN renal) [µM] | TGI (ACHN renal) | TGI (TK-10 renal) [µM] | TGI (T-47D breast) [µM] | GI50 (SF-268 CNS) [µM] | TGI (SF-268 CNS) | GI50 (K-562 leukemia) [µM] | TGI (K-562 leukemia) | GI50 (NCI-H226 lung) [µM] | TGI (NCI-H226 lung) | TGI (LOX IMVI melanoma) [µM] | GI50 (M14 melanoma) [µM] | TGI (M14 melanoma) | GI50 (TK-10 renal) [µM] | GI50 (T-47D breast) [µM] | GI50 (LOX IMVI melanoma) [µM]
1 | OCC1OC(n2cnc3c2NC=NC[C@H]3O)CC1O (some centres not stated) | > 588 | 461 µM and > 588 µM | > 588 | 500 µM and > 588 µM | > 588 | 497 µM and > 588 µM | > 500 | 281 | > 588 | 500 µM and > 588 µM | > 588 | 474 µM and > 588 µM | > 588 | 500 µM and > 588 µM | 500 | > 588 | 500 µM and > 588 µM |  |  | 
2 | COc1ccc(OC)c(/C=C2\COc3ccc(O)c(O)c3C2=O)c1 | 1.79 | 4.51 µM | 2.21 | 10.5 µM | 1.84 | 3.97 µM | 14.3 | 15.2 | 2.19 | 10.8 µM | 2.17 | > 100 µM | 6.76 | 36.8 µM | 3.02 | 2.09 | 6.9 µM | 4 | 2.64 | 1.48
3 | NC1=CC(=O)c2nc3ccccc3c3ccnc1c23 | 2.38 | 17.2 µM | 2.17 | > 45.2 µM | 3.15 | 33 µM | 42.5 | > 67.4 | 4.26 | 22.1 µM | 4.26 | > 100 µM | 0.937 | > 32.6 µM | 4.22 | 0.342 | 26.7 µM | 6.54 | 7.85 | 0.219
4 | COc1cc(C2CC(c3ccccc3)=NN2C(C)=O)cc(OC)c1OC (configuration not stated) | 4.2 | > 100 µM | 3.93 | > 100 µM | 5.88 | > 100 µM | > 100 | > 100 | 5.37 | > 100 µM | 2.77 | > 100 µM | 6.8 | > 100 µM | > 100 | 2.47 | > 34.2 µM | > 46.9 | 5.33 | 6.38
5 | O=C(O)c1ccccc1-c1ccccc1C(=O)Nc1ccc2c(c1)[nH]c(=O)c1ccccc12 |  | > 100 µM |  | > 100 µM |  | > 100 µM | > 100 | > 100 |  | > 100 µM |  | > 100 µM |  | > 100 µM | > 100 |  | > 100 µM |  |  | 
6 | O=C(CN1C(=O)S/C(=C\C(Cl)=C\c2ccccc2)C1=O)NCCc1ccc(O)cc1 | 1.7 | 3.96 µM | 2 | 5.16 µM | 2.55 | 8.06 µM | 5.02 | 8.65 | 2.28 | 6.63 µM | 2.28 | > 100 µM | 1.99 | 4.4 µM | 2.85 | 1.65 | 4.11 µM | 2.42 | 2.47 | 1.42
7 | CC1OC(n2c3ccccc3c3c4c(c5c6ccccc6[nH]c5c32)C(=O)N(CCN2CCOCC2)C4=O)CC(O)C1O (configuration not stated) | 1.03 | 6.06 µM | 1.24 | 7.19 µM | 1.51 | 6.74 µM | 13.8 | 10.4 | 1.66 | 9.65 µM | 1.85 | 50 µM | 2.2 | 9.87 µM | 6.12 | 1.43 | 5.95 µM | 6.33 | 1.37 | 0.962
8 | CCCCCCCCCCCCCCCCCC(=O)OCC(COC1OC(CS(=O)(=O)O)C(O)C(O)C1O)OC(=O)CCCCCCCCCCCCCCCCC (configuration not stated) |  | > 100 µM |  | > 100 µM |  | > 100 µM | > 100 | > 100 |  | > 100 µM |  | > 100 µM |  | > 100 µM | > 100 |  | > 100 µM |  |  | 
9 | Cn1ccnc1C(=O)/C=C/c1ccc(CC(=O)Nc2ccc(F)cc2)cc1 | 3.51 | 7.75 µM | 1.4 | 4.81 µM | 5.74 | > 25 µM | > 25 | > 25 | 2.89 | 13.5 µM | 0.823 | > 25 µM | 8.57 | > 25 µM | 3.9 | 3.23 | 7.95 µM | 10.5 | 8.34 | 0.712
10 | CC(C)NC(=O)OCc1c(COC(=O)NC(C)C)c(-c2ccc(Cl)c(Cl)c2)n2c1CCC2 |  | 53.9 µM |  | 71.8 µM |  | 43.6 µM | 88.2 | > 56.2 |  | 67.6 µM |  | 77.1 µM |  | 47.4 µM | 66.6 |  | 55.5 µM |  |  | 
11 | COc1ccc(-c2nn(-c3cccc(NC(=O)c4cccc(C(F)(F)F)c4)c3)cc2-c2ccncc2)cc1Cl | 2.27 | 24 µM | 1.8 | 17.6 µM | 4.4 | > 100 µM | > 100 | > 100 | 4.08 | > 100 µM | 0.837 | > 100 µM | 4.92 | > 100 µM | 27.2 | 2.23 | 25.3 µM | 6.77 | 2.56 | 3.08
12 | Cc1[nH]nc2ccc3nc(-c4ccc5[nH]ncc5c4)c4c(c3c12)CCCC4 | 0.717 | 6.13 µM | 0.92 | 13.9 µM | 0.367 | 12.9 µM | 20 | 8.22 | 1.97 | 17.8 µM | 1.7 | > 100 µM | 1.89 | 10.8 µM | 11 | 0.604 | 13.3 µM | 1.12 | 1.14 | 1.22
13 | CC(=O)OC1Oc2cc(C)c(C)cc2-c2oc(=O)c(-c3ccc(F)cc3)cc21 (configuration not stated) | 3.92 | 76.3 µM | 4.06 | 45.6 µM | 11.9 | > 100 µM | 71.4 | 17.1 | 9.32 | > 100 µM | 3.01 | 12.3 µM | 12.9 | > 100 µM | > 100 | 3.99 | > 100 µM | 17.1 | 2.43 | 5.61
